Laboratory results: patent US20230416329A1, “A PEPTIDE WITH DISULFIDE BONDS AND INHIBITORY ACTIVITY AGAINST SERINE PROTEASES, DERIVED HYBRID PEPTIDES THEREOF, AND USES THEREOF” (INSTITUTE OF MATERIA MEDICA , CHINESE ACADEMY OF MEDICAL …, priority 2020, published 2023)
Bridge positions count the residues as written; N and C are the ends. Square brackets hold non-standard residues; d marks the D form. Peptide text beside a SMILES is read from it. Hyp = O=C(O)[C@@H]1C[C@@H](O)CN1

Molecular target: α-chymotrypsin (Bos taurus, UniProt P00766)
Experiment: Chymotrypsin inhibitory activity of peptides (AAPFpNA hydrolysis; IC50, Ki, residual activity)
Type: biochemical
Details: for IC50: chymotrypsin 30 nM, AAPFpNA 0.5 mM; for Ki: Ki=IC50/(1+S/Km), Km 0.38 mM
Procedure, shortened: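 Peptide preincubated 10 min at 37 °C with 30 nM α-chymotrypsin in 50 mM Tris-HCl pH 7.8, 20 mM CaCl2; 0.5 mM AAPFpNA then added and A405 read after 90 min. Residual activity versus controls gave IC50; Ki = IC50/(1+S/Km), with Km measured separately.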

SMILES | IC50 | Ki | also measured
CC[C@H](C)[C@@H]1NC(=O)[C@H](CO)NC(=O)[C@H](Cc2ccccc2)NC(=O)[C@H](C)NC(=O)[C@H](CC(C)C)NC(=O)CNC(=O)[C@@H](N)CSSC[C@@H](C(=O)N[C@@H](Cc2ccc(O)cc2)C(=O)NCC(=O)O)NC(=O)[C@H](CCC(N)=O)NC(=O)[C@@H]2CCCN2C(=O)[C@@H]2CCCN2C1=O [CH3] (H-CGLAFSIPPQCYG-OH; disulfide 1-11; N-terminus and C-terminus assumed) | > 50 µM | – | –
C[C@@H]1NC(=O)[C@@H](NC(=O)[C@@H](N)Cc2ccccc2)CSSC[C@@H](C(=O)N[C@@H](CCC(N)=O)C(=O)O)NC(=O)[C@H](CCCCN)NC(=O)[C@@H]2CCCN2C(=O)[C@@H]2CCCN2C(=O)[C@H](CC(N)=O)NC(=O)[C@H](CO)NC(=O)[C@H](Cc2ccc(O)cc2)NC1=O [CH44] (H-FCAYSNPPKCQ-OH; disulfide 2-10; N-terminus and C-terminus assumed) | 19.9 µM | 8.59 µM | –
CSCC[C@H](N)C(=O)N[C@H]1CSSC[C@@H](C(=O)N[C@H](C(=O)O)C(C)C)NC(=O)[C@H](CCCCN)NC(=O)[C@H](C)NC(=O)[C@@H]2CCCN2C(=O)[C@H](Cc2c[nH]cn2)NC(=O)[C@H](CO)NC(=O)[C@H](Cc2ccccc2)NC(=O)[C@H]([C@@H](C)O)NC1=O [CH49] (H-MCTFSHPAKCV-OH; disulfide 2-10; N-terminus and C-terminus assumed) | 22.7 µM | 9.81 µM | inhibitory activity against chymotrypsin (in words): good chymotrypsin inhibitory activity
NC(=O)CC[C@H](NC(=O)[C@@H]1CSSC[C@H](NC(=O)[C@@H](N)Cc2ccccc2)C(=O)N[C@@H](CC(N)=O)C(=O)N[C@@H](Cc2ccc(O)cc2)C(=O)N[C@@H](CO)C(=O)N[C@@H](CC(N)=O)C(=O)N2CCC[C@H]2C(=O)N2CCC[C@H]2C(=O)N[C@@H](CCC(N)=O)C(=O)N1)C(=O)O [CH46] (H-FCNYSNPPQCQ-OH; disulfide 2-10; N-terminus and C-terminus assumed) | > 50 µM | – | –
C[C@@H]1NC(=O)[C@@H](NC(=O)[C@@H](N)Cc2ccccc2)CSSC[C@@H](C(=O)N[C@@H](CCC(N)=O)C(=O)O)NC(=O)[C@H](CCC(N)=O)NC(=O)[C@@H]2CCCN2C(=O)[C@@H]2CCCN2C(=O)[C@H](CC(N)=O)NC(=O)[C@H](CO)NC(=O)[C@H](Cc2ccc(O)cc2)NC1=O [CH43] (H-FCAYSNPPQCQ-OH; disulfide 2-10; N-terminus and C-terminus assumed) | 9.2 µM | 3.97 µM | –
CC[C@H](C)[C@@H]1NC(=O)[C@H](CO)NC(=O)[C@H](Cc2ccc(O)cc2)NC(=O)[C@H]([C@@H](C)O)NC(=O)[C@@H](NC(=O)[C@@H](N)Cc2ccccc2)CSSC[C@@H](C(=O)N[C@@H](Cc2ccc(O)cc2)C(=O)NCC(=O)O)NC(=O)[C@H](CCC(N)=O)NC(=O)[C@@H]2C[C@@H](O)CN2C(=O)[C@@H]2CCCN2C1=O [CH52] (H-FCTYSIP[Hyp]QCYG-OH; disulfide 2-10) | 0.84 µM | 0.36 µM | –
CC(C)C[C@H](NC(=O)[C@@H]1CSSC[C@H](NC(=O)[C@@H](N)CCCNC(=N)N)C(=O)N[C@@H](CC(=O)O)C(=O)N[C@@H](Cc2ccccc2)C(=O)N[C@@H](CO)C(=O)N[C@@H](Cc2c[nH]c3ccccc23)C(=O)N2CCC[C@H]2C(=O)N2CCC[C@H]2C(=O)N[C@@H](CCCNC(=N)N)C(=O)N1)C(=O)O [CH42] (H-RCDFSWPPRCL-OH; disulfide 2-10; N-terminus and C-terminus assumed) | > 50 µM | – | –
CC[C@H](C)[C@@H]1NC(=O)[C@H](CO)NC(=O)[C@H](Cc2ccc(O)cc2)NC(=O)[C@H]([C@@H](C)O)NC(=O)[C@@H](NC(=O)[C@@H](N)Cc2ccccc2)CSSC[C@@H](C(=O)N[C@@H](Cc2ccc(O)cc2)C(=O)O)NC(=O)[C@H](CCC(N)=O)NC(=O)[C@H](C)NC(=O)[C@@H]2CCCN2C1=O [CH37] (H-FCTYSIPAQCY-OH; disulfide 2-10; N-terminus and C-terminus assumed) | 1.81 µM | 0.78 µM | –
CC[C@H](C)[C@@H]1NC(=O)[C@H](CO)NC(=O)[C@H](Cc2ccccc2)NC(=O)[C@H]([C@@H](C)O)NC(=O)[C@H](C)NC(=O)[C@H](CO)NC(=O)CNC(=O)[C@@H](N)CSSC[C@@H](C(=O)N[C@@H](Cc2ccc(O)cc2)C(=O)NCC(=O)O)NC(=O)[C@H](CCC(N)=O)NC(=O)[C@@H]2CCCN2C(=O)[C@@H]2CCCN2C1=O [CH13] (H-CGSATFSIPPQCYG-OH; disulfide 1-12; N-terminus and C-terminus assumed) | 5.62 µM | 2.43 µM | inhibitory activity against chymotrypsin (in words): good inhibitory activity
CC[C@H](C)[C@@H]1NC(=O)[C@H](CO)NC(=O)[C@H](Cc2ccc(O)cc2)NC(=O)[C@H]([C@@H](C)O)NC(=O)[C@H](C)NC(=O)[C@H](C)NC(=O)CNC(=O)CNC(=O)[C@@H](N)CSSC[C@@H](C(=O)N[C@@H](Cc2ccccc2)C(=O)O)NC(=O)[C@H](CCCCN)NC(=O)[C@H](C)NC(=O)[C@@H]2CCCN2C1=O [CH32] (H-CGGAATYSIPAKCF-OH; disulfide 1-13; N-terminus and C-terminus assumed) | 6.38 µM | 2.76 µM | inhibitory activity against chymotrypsin (in words): certain inhibitory activity; Residual activity of chymotrypsin (peptide 0.01 μM): 99.5 ± 0.1%; Residual activity of chymotrypsin (peptide 0.1 μM): 100.2 ± 1.9%; Residual activity of chymotrypsin (peptide 1 μM): 99.0 ± 2.0%; Residual activity of chymotrypsin (peptide 4 μM): 90.1 ± 6.1%; Residual activity of chymotrypsin (peptide 6 μM): 49.2 ± 2.7%; Residual activity of chymotrypsin (peptide 8 μM): 40.8 ± 6.0%; Residual activity of chymotrypsin (peptide 25 μM): 14.4 ± 1.1%; Residual activity of chymotrypsin (peptide 100 μM): 2.2 ± 0.2%; Residual activity of chymotrypsin (peptide 300 μM): 0.7 ± 0.1%
CC[C@H](C)[C@@H]1NC(=O)[C@H](CO)NC(=O)[C@H](Cc2ccc(O)cc2)NC(=O)[C@H]([C@@H](C)O)NC(=O)[C@@H](NC(=O)[C@@H](N)Cc2ccccc2)CSSC[C@@H](C(=O)N[C@@H](Cc2ccc(O)cc2)C(=O)N[C@@H](C)C(=O)O)NC(=O)[C@H](CCC(N)=O)NC(=O)[C@@H]2CCCN2C(=O)[C@@H]2CCCN2C1=O [CH34] (H-FCTYSIPPQCYA-OH; disulfide 2-10; N-terminus and C-terminus assumed) | – | – | inhibitory activity against chymotrypsin (in words): good inhibitory activity
CC[C@H](C)[C@@H]1NC(=O)[C@H](CO)NC(=O)[C@H](Cc2ccc(O)cc2)NC(=O)[C@H]([C@@H](C)O)NC(=O)[C@H](C)NC(=O)[C@H](C)NC(=O)CNC(=O)[C@@H](N)CSSC[C@@H](C(=O)N[C@@H](Cc2ccccc2)C(=O)O)NC(=O)[C@H](CCCCN)NC(=O)[C@H](C)NC(=O)[C@@H]2CCCN2C1=O [CH31] (H-CGAATYSIPAKCF-OH; disulfide 1-12; N-terminus and C-terminus assumed) | 6.08 µM | 2.63 µM | inhibitory activity against chymotrypsin (in words): certain inhibitory activity; Residual activity of chymotrypsin (peptide 0.01 μM): 107.4 ± 5.6%; Residual activity of chymotrypsin (peptide 0.1 μM): 104.3 ± 1.7%; Residual activity of chymotrypsin (peptide 1 μM): 104.8 ± 2.6%; Residual activity of chymotrypsin (peptide 8 μM): 42.5 ± 5.9%; Residual activity of chymotrypsin (peptide 10 μM): 29.5 ± 5.1%; Residual activity of chymotrypsin (peptide 25 μM): 12.7 ± 4.0%; Residual activity of chymotrypsin (peptide 100 μM): 2.6 ± 0.3%; Residual activity of chymotrypsin (peptide 300 μM): 1.0 ± 0.1%; Residual activity of chymotrypsin (peptide 1000 μM): 0.4 ± 0.0%
CC[C@H](C)[C@H](N)C(=O)N[C@H]1CSSC[C@@H](C(=O)N[C@H](C(=O)O)[C@@H](C)CC)NC(=O)[C@H](CCC(N)=O)NC(=O)[C@H](C)NC(=O)[C@@H]2CCCN2C(=O)[C@H]([C@@H](C)CC)NC(=O)[C@H](CO)NC(=O)[C@H](Cc2ccccc2)NC(=O)[C@H]([C@@H](C)O)NC1=O [CH38] (H-ICTFSIPAQCI-OH; disulfide 2-10; N-terminus and C-terminus assumed) | 4.98 µM | 2.15 µM | –
CC[C@H](C)[C@@H]1NC(=O)[C@H](CO)NC(=O)[C@H](Cc2ccc(O)cc2)NC(=O)[C@H]([C@@H](C)O)NC(=O)[C@H](C)NC(=O)[C@H](CO)NC(=O)[C@@H](N)CSSC[C@@H](C(=O)N[C@@H](Cc2ccc(O)cc2)C(=O)O)NC(=O)[C@H](CCC(N)=O)NC(=O)[C@@H]2CCCN2C(=O)[C@@H]2CCCN2C1=O [CH8] (H-CSATYSIPPQCY-OH; disulfide 1-11; N-terminus and C-terminus assumed) | > 50 µM | – | –
CC[C@H](C)[C@@H]1NC(=O)[C@H](CO)NC(=O)[C@H](Cc2ccc(O)cc2)NC(=O)[C@H]([C@@H](C)O)NC(=O)[C@H](C)NC(=O)[C@H](CC(N)=O)NC(=O)CNC(=O)[C@@H](N)CSSC[C@@H](C(=O)N[C@@H](Cc2ccc(O)cc2)C(=O)NCC(=O)O)NC(=O)[C@H](CCC(N)=O)NC(=O)[C@@H]2CCCN2C(=O)[C@@H]2CCCN2C1=O [CH21] (H-CGNATYSIPPQCYG-OH; disulfide 1-12; N-terminus and C-terminus assumed) | > 50 µM | – | –
CC[C@H](C)[C@H](N)C(=O)N[C@H]1CSSC[C@@H](C(=O)N[C@@H](Cc2ccccc2)C(=O)O)NC(=O)[C@H](CCC(N)=O)NC(=O)[C@H](C)NC(=O)[C@@H]2CCCN2C(=O)[C@H]([C@@H](C)CC)NC(=O)[C@H](CO)NC(=O)[C@H](Cc2ccccc2)NC(=O)[C@H]([C@@H](C)O)NC1=O [CH40] (H-ICTFSIPAQCF-OH; disulfide 2-10; N-terminus and C-terminus assumed) | 2.46 µM | 1.06 µM | –
C[C@@H]1NC(=O)[C@@H](NC(=O)[C@@H](N)Cc2ccccc2)CSSC[C@@H](C(=O)N[C@@H](CCC(N)=O)C(=O)O)NC(=O)[C@H](CCCCN)NC(=O)[C@@H]2CCCN2C(=O)[C@@H]2CCCN2C(=O)[C@H](Cc2ccc(O)cc2)NC(=O)[C@H](CO)NC(=O)[C@H](Cc2ccc(O)cc2)NC1=O [CH45] (H-FCAYSYPPKCQ-OH; disulfide 2-10; N-terminus and C-terminus assumed) | 19.2 µM | 8.29 µM | –
